# Source: article PMC11513920, “Building Metabolically Stable and Potent Anti-HIV Thioether-Lipid Analogues of Tenofovir Exalidex: A thorough Pharmacological Analysis” (Journal of Medicinal Chemistry, 2024)
# “And” between values parts separate entries of the source, which are not always exact repeats. Equal values may be shown once.
# Legend:
# [1] = Mouse tissue (liver, kidney, brain) pharmacokinetics after oral dose; format: in vivo, male C57BL/6 mice; settings: for AUC(0-t) at 24 h: read-out: AUC0–24h
# Procedure: (§1) To compare the in vivo PK profiles to TXL and our previously reported drug lead 1 (Tables S19 and S26),[39] one group of male C57BL/6 mice were administered a single oral dose (p.o., 10 mg/kg) of 2a, 16g, or 16h (refer to Experimental Methods). Additionally, a separate group of mice were given a single intravenous dose (i.v., 3 mg/kg) of each prodrug to obtain plasma clearance (Cl), volume of distribution (Vd), and oral bioavailability data. Blood was sampled at 8 time points over 8 h (i.v.) or 24 h (p.o.) postdose, and plasma was isolated via centrifugation. Tissues (liver, kidney, and brain) were also harvested and homogenized at 3 time points over 24 h after oral dose. The concentrations of prodrug and TFV metabolite in each of these samples was then quantified using LC–MS/MS methodology.
# (§2) Healthy male C57BL/6 mice (8–12 weeks old) weighing 20–30 g were procured from Global, India. Three mice were housed in each cage. Temperature and humidity were maintained at 22 ± 3 °C and 30–70%, respectively, and illumination was controlled to provide for 12 h light and 12 h dark cycles. Temperature and humidity were recorded by an autocontrolled data logger system. All animals were provided a laboratory rodent diet (Envigo Research private Ltd., Hyderabad). Reverse osmosis H2O treated with ultraviolet light was provided ad libitum.
# (§3) Male mice were divided into two groups (n = 18 total, n = 9 per treatment group, n = 3 per time point, sparse sampling). One group was intravenously administered a solution of 2a, 16g, and 16h in 10% PEG-300, 10% Solutol HS-15, and 80% saline at 3 mg/kg with a dosing volume of 5 mL/kg. The second group was administered a solution of 2a, 16g, and 16h in 10% EtOH and 90% olive oil at 10 mg/kg via oral gavage with a dosing volume of 10 mL/kg.
# (§4) Blood samples (approximately 60 μL) were collected from retro-orbital plexus under light isoflurane anesthesia such that the samples were obtained predose, as well as at eight time points post dose: 0.1, 0.25, 0.5, 1, 2, 4, 6, and 8 (i.v.) and 0.25, 0.5, 1, 2, 4, 8, 12, and 24 h (p.o.). Immediately after blood collection, plasma samples were harvested by centrifugation at 4000 rpm and 4 °C for 10 min and stored at −70 °C until LC–MS/MS analysis. Following blood collection from p.o. group, liver, kidney, and brain samples were collected (n = 3 per treatment group per time point) at 1, 4, and 24 h post dose. After isolation, tissue samples were rinsed three times with ice-cold saline and dried with blotting paper. Next, the tissue samples were homogenized using ice-cold PBS (pH = 7.4), and the resulting homogenates were stored below −70 °C until LC-MS/MS analysis. The total homogenate volume was 3 times the brain weight and 5 times the liver and kidney weight.
# (§5) Areas under the concentration–time curves (AUC0–8h and AUC0–24h) were calculated via the linear trapezoidal rule[65] using GraphPad Prism v9. Furthermore, terminal elimination rate constants k were determined using linear regression (slope = −k) of the terminal portion of semilog-transformed concentration–time curves (Figures S44, S45, S47, S48, S50, and S51).
# [2] = tested on: HIV-1 subtype C strain MJ4; experiment: Single-cycle non-replicating HIV pseudoviral luciferase assay in HEK293T cells; settings: Human immunodeficiency virus 1, HEK-293T, read-out: HIV IC50
# Procedure: Second, HIV IC50 and cellular CC50 were determined with a pseudoviral, whole (HEK293T) cell, nonreplicative HIV assay, using the HIV-1 subtype C strain MJ4 (refer to Experimental Methods). To account for the unique amphiphilic properties of TXL and the novel HTP-based prodrugs, all compounds were formulated in a human serum albumin (HSA) solution (5:1 drug:protein).
# Assessment of cytotoxicity and antiviral activity of all final compounds in vitro was conducted according to previously reported procedures.[39] In summary, human embryonic kidney (HEK293T) cells maintained in high glucose (25 mM), Dulbecco’s modified Eagle’s medium (DMEM) supplemented with fetal bovine serum (10%), sodium pyruvate (1 mM), L-glutamine (2 mM), HEPES (25 mM), and gentamicin (50 μg/mL) were used for determinations. The cells were maintained in an incubator at 37 °C under 5% CO2 in a humidified atmosphere. For both cytotoxicity and antiviral screening, all compounds were evaluated in duplicate in at least two independent experiments. All final compounds were formulated with human serum albumin (HSA, 5:1 compound to HSA molar ratio) and subsequently diluted with complete DMEM to 200 μM. Fifty microliters of test compound serial dilutions (3-fold) were prepared in 96-well culture plates, after which 50 μL of HEK293T cells (2 × 10^4 cells/well) was added. […] Cytotoxicity was then assessed by quantifying cell viability using the CellTiter 96 Aqueous One Solution Cell Proliferation Assay (Promega, Madison, WI) or resazurin sodium salt (cat# R7017, Merck, Darmstadt, Germany).[61] […] Antiviral activity was then assessed using a single-cycle, nonreplicating, envelope deleted HIV pseudoviral in vitro assay.[62],[63] The assay relies on the introduction of the firefly luciferase gene into HEK293T cells through infection with HIV-like viral particles, containing Reverse Transcriptase (RT) and Integrase (IN) from the HIV-1 subtype C strain MJ4.[64] The expression of the luciferase in the cells is directly proportional to the level of infection by the HIV-like viral particles and can be used to assess the inhibition of HIV-1 RT and IN. To evaluate anti-HIV activity, 3-fold serial dilutions of all final compounds were prepared in 50 μL over the noncytotoxic concentration range (as determined from the cytotoxicity screens described above) in 96-well culture plates. HEK293T cells (2 × 10^4 cells/well) and HIV-like viral particles, standardized to produce a luminescence signal of 1 × 10^6 relative light units (RLUs) in the growth medium only control, were combined, and 50 μL was added to the wells containing serially diluted test compounds. […] The expression of luciferase was subsequently quantified by adding 100 μL of the Bright-Glo Luciferase Assay substrate (Promega, Madison, WI) to each well of the 96-well plates. After incubation at rt for 3 min, luminescence was quantified on the GloMax Explorer Multimode Microplate Reader (Promega, Madison, WI).
# [3] = Mouse plasma pharmacokinetics after oral dose; format: in vivo, male C57BL/6 mice
# Procedure: as §1, §2, §3, §4, §5
# [4] = Mouse plasma pharmacokinetics after intravenous dose; format: in vivo, male C57BL/6 mice; settings: i.v. 3 mg/kg
# Procedure: as §1, §2, §3, §4, §5
# [5] = tested on: HEK293T cells; experiment: Cellular cytotoxicity (cell viability, CellTiter 96 or resazurin); settings: HEK293T cells, 48 h, compounds formulated with HSA (5:1)
# [6] = as above; settings: human, CC50, HEK293T cells, compounds formulated with HSA (5:1)
# [7] = HepaRG cellular metabolic stability; settings: human, other cell line
# [8] = tested on: HepaRG cells; experiment: HepaRG cellular metabolic stability
# [9] = male, C57BL/6, mouse, brain, po, p.o. 10 mg/kg, read-out: mean prodrug concentration in brain
# [10] = male, C57BL/6, mouse, kidney, po, p.o. 10 mg/kg, read-out: mean prodrug concentration in kidney
# [11] = male, C57BL/6, mouse, liver, po, p.o. 10 mg/kg, read-out: mean prodrug concentration in liver
# [12] = male, C57BL/6, mouse, po, brain, prodrug, p.o. 10 mg/kg
# [13] = male, C57BL/6, mouse, po, kidney, prodrug, p.o. 10 mg/kg
# [14] = male, C57BL/6, mouse, po, liver, prodrug, p.o. 10 mg/kg
# [15] = male, C57BL/6, mouse, po, plasma, prodrug, p.o. 10 mg/kg
# [16] = male, C57BL/6, mouse, iv, prodrug
compound,measurement,setting,value
C[C@H](Cn1cnc2c(N)ncnc21)OCP(=O)(O)OCCCSCCCCCCCCCCCCC1CCCCC1.N [16h],TFV in brain tissue,"[1]; brain, 1, 4 and 24 h after p.o. 10 mg/kg of prodrug, LLOQ 4.84 ng/mL (9.67 for 16h)",BLQ
same,concentration at 1 h,[1]; [9],16.1 ng/mL
same,concentration at 4 h,[1]; [9],8.39 ng/mL
same,concentration at 1 h,[1]; [10],279 ng/mL
same,concentration at 4 h,[1]; [10],795 ng/mL
same,concentration at 24 h,"[1]; male, C57BL/6, mouse, kidney, po, p.o. 10 mg/kg, 24 h, read-out: mean prodrug concentration in kidney",123 ng/mL
same,concentration at 1 h,[1]; [11],1540 ng/mL
same,concentration at 4 h,[1]; [11],2150 ng/mL
same,concentration at 24 h,"[1]; male, C57BL/6, mouse, liver, po, p.o. 10 mg/kg, 24 h, read-out: mean prodrug concentration in liver",32.4 ng/mL
same,Cmax at 24 h,[1]; [12],16.2 ng/mL
same,Tmax at 24 h,[1]; [12],1 h
same,AUC(0-t) at 24 h,[1]; [12],36.8 ng·h/mL
same,Cmax at 24 h,[1]; [13],795 ng/mL
same,AUC(0-t) at 24 h,[1]; [13],10800 ng·h/mL
same,Cmax at 24 h,[1]; [14],2150 ng/mL
same,AUC(0-t) at 24 h,[1]; [14],27300 ng·h/mL
same,mean prodrug concentration in brain,"[1]; p.o. 10 mg/kg, 24 h, BLQ = below limit of quantitation",BLQ
same,IC50,[2],0.008 to 0.012 µM
same,bioavailability,"[3]; male, C57BL/6, mouse, plasma, oral, p.o. 10 mg/kg vs i.v. 3 mg/kg, read-out: %F (oral bioavailability)",55%
same,bioavailability at 24 h,"[3]; male, C57BL/6, mouse, plasma, po, p.o. 10 mg/kg vs i.v. 3 mg/kg, read-out: %F (oral bioavailability)",54.9%
same,concentration at 0.25 h,"[3]; male, C57BL/6, mouse, plasma, po, p.o. 10 mg/kg, 0.25 h, read-out: mean prodrug concentration in plasma",48.9 ng/mL
same,concentration at 0.5 h,"[3]; male, C57BL/6, mouse, plasma, po, p.o. 10 mg/kg, 0.5 h, read-out: mean prodrug concentration in plasma",79.1 ng/mL
same,concentration at 1 h,"[3]; male, C57BL/6, mouse, plasma, po, p.o. 10 mg/kg, 1 h, read-out: mean prodrug concentration in plasma",140 ng/mL
same,concentration at 2 h,"[3]; male, C57BL/6, mouse, plasma, po, p.o. 10 mg/kg, 2 h, read-out: mean prodrug concentration in plasma",195 ng/mL
same,concentration at 4 h,"[3]; male, C57BL/6, mouse, plasma, po, p.o. 10 mg/kg, 4 h, read-out: mean prodrug concentration in plasma",59.2 ng/mL
same,concentration at 8 h,"[3]; male, C57BL/6, mouse, plasma, po, p.o. 10 mg/kg, 8 h, read-out: mean prodrug concentration in plasma",36.1 ng/mL
same,concentration at 12 h,"[3]; male, C57BL/6, mouse, plasma, po, p.o. 10 mg/kg, 12 h, read-out: mean prodrug concentration in plasma",38.2 ng/mL
same,concentration at 24 h,"[3]; male, C57BL/6, mouse, plasma, po, p.o. 10 mg/kg, 24 h, BLQ = below LLOQ (0.58 ng/mL 2a, 0.62 ng/mL 16g), read-out: mean prodrug concentration in plasma",0.87 ng/mL
same,half-life,"[3]; male, C57BL/6, mouse, po, plasma, p.o. 10 mg/kg",3.07 h
same,Cmax at 24 h,[3]; [15],195 ng/mL
same,Tmax at 24 h,[3]; [15],2 h
same,AUC(0-t) at 24 h,"[3]; male, C57BL/6, mouse, po, plasma, prodrug, p.o. 10 mg/kg, read-out: AUC0–24h",1070 ng·h/mL
same,mean TFV concentration in plasma,"[3]; p.o. 10 mg/kg of prodrug, 0.25 h, LLOQ 4.84 ng/mL",BLQ
same,Vd,"[3]; plasma, p.o. 10 mg/kg",22.8 L/kg
same,k (terminal elimination rate constant),"[3]; plasma, p.o. 10 mg/kg, 10 mg/kg",0.2258 and 0.226
same,k (terminal elimination rate constant),[4]; 3 mg/kg,0.5743 and 0.574
same,Vd at 8 h,"[4]; male, C57BL/6, mouse, iv",8.97 L/kg
same,clearance,"[4]; male, C57BL/6, mouse, iv",85.8 mL/min/kg
same,half-life at 8 h,"[4]; male, C57BL/6, mouse, iv",1.21 h
same,concentration at 0.1 h,"[4]; male, C57BL/6, mouse, iv, 0.1 h, read-out: mean prodrug concentration in plasma",2380 ng/mL
same,concentration at 0.25 h,"[4]; male, C57BL/6, mouse, iv, 0.25 h, read-out: mean prodrug concentration in plasma",522 ng/mL
same,concentration at 0.5 h,"[4]; male, C57BL/6, mouse, iv, 0.5 h, read-out: mean prodrug concentration in plasma",406 ng/mL
same,concentration at 1 h,"[4]; male, C57BL/6, mouse, iv, 1 h, read-out: mean prodrug concentration in plasma",127 ng/mL
same,concentration at 2 h,"[4]; male, C57BL/6, mouse, iv, 2 h, read-out: mean prodrug concentration in plasma",17.4 ng/mL
same,concentration at 4 h,"[4]; male, C57BL/6, mouse, iv, 4 h, read-out: mean prodrug concentration in plasma",8.98 ng/mL
same,concentration at 6 h,"[4]; male, C57BL/6, mouse, iv, 6 h, read-out: mean prodrug concentration in plasma",3.65 ng/mL
same,concentration at 8 h,"[4]; male, C57BL/6, mouse, iv, 8 h, read-out: mean prodrug concentration in plasma",1.41 ng/mL
same,Cmax at 8 h,[4]; [16],2380 ng/mL
same,Tmax at 8 h,[4]; [16],6 min
same,AUC(0-t) at 8 h,"[4]; male, C57BL/6, mouse, iv, prodrug, read-out: AUC0–8h",583 ng·h/mL
same,CC50,[5],47.5 ± 8.7 µM
same,CC50 at 48 h,[6],48 µM
same,hepatocyte CLint at 20 μM,"[7]; HepaRG Clint,u, calculated from cellular t1/2",18 to 19 µL/min/1e6 cells
same,half-life at 20 μM,"[7]; HepaRG t1/2, after 3 h loading at 20 μM, 37 °C",1.12 to 1.18 h
same,HepaRG t1/2,"[8]; after 3 h loading at 20 μM, 37 °C",1.18 ± 0.0067 h
same,"HepaRG Clint,u",[8]; calculated from cellular t1/2,17.8 μL/min/million cells
